One test concerns the target SARS-COV-2 PLpro (Severe acute respiratory syndrome coronavirus 2, UniProt P0DTD1). It is filed as biochemical. Particulars: Example 1; 50 μM; FIG. 2 and Table 2.
Another test relates to H460 cancer cell line. As to the kind of experiment: In vitro cytotoxicity, Alamar blue cell viability, NCI-H460. It is filed as cell-based. Particulars: 24 hr.
The next test relates to A549 cancer cell line. The test is described as follows: In vitro cytotoxicity, Alamar blue cell viability, A549. Particulars: 24 hr. It is filed as cell-based.
In another test the test system is Huh-7 cancer cell line. The test is described as follows: In vitro cytotoxicity, Alamar blue cell viability, Huh-7. It is filed as cell-based. The conditions noted are these: 24 hr.
The test system of another test is AsPC-1 cancer cell line. As to the kind of experiment: In vitro cytotoxicity, Alamar blue cell viability, AsPC-1. It is filed as cell-based. The conditions noted are these: 24 hr.
The test system of the next test is HCT-116 cancer cell line. As to the kind of experiment: In vitro cytotoxicity, Alamar blue cell viability, HCT-116. It is filed as cell-based. Particulars: 24 hr.
In the next test the test system is SKOV-3 cancer cell line. As to the kind of experiment: In vitro cytotoxicity, Alamar blue cell viability, SK-OV-3. It is filed as cell-based. Particulars: 24 hr.
For test [1], the system named is MDA-MB-231 cancer cell line. As to the kind of experiment: In vitro cytotoxicity, Alamar blue cell viability, MDA-MB-231. It is filed as cell-based. The conditions noted are these: 24 hr.
Another test deals with SARS-COV-2. The conditions noted are these: Example 2; intranasal 0.35 mg/kg twice daily, 3-day treatment; FIG. 3.

Description for SARS-COV-2 PLpro: The enzymatic activity of SARS-COV-2 PLpro obtained above was measured by a colorimetry-based peptide cleavage assay, using the 6-mer peptide substrate, FRLKGG-para-nitroanilide (FG6-pNA) (purity 97% by HPLC; GL Biochem Ltd., Shanghai, China). In the cleavage assay, the 6-mer peptide substrate was cleaved at the Gly-pNA bond to release free pNA, which turned the color of the solution to yellow. The enzymatic activity was determined by continuously monitoring the absorbance at 405 nm (A405) using a 96-well microplate spectrophotometer (Epoch™ 2, Biotek) at 30° C.
An enzyme inhibition assay was performed in a 96-well microplate. Each of the wells of the microplate contained a 50 mM phosphate buffer (pH 7.4). SARS-COV-2 PLPro obtained above (0.9 μM) was added into the respective well to form an enzyme solution. […]
20 μL of FG6-pNA (1.2 mM) described above was added into the test mixture of the respective group to initiate the enzyme reaction. […] The enzymatic activity was determined by continuously monitoring the absorbance at 405 nm (A405) using a 96-well microplate spectrophotometer (Epoch™ 2, Biotek). The reaction rate was calculated accordingly, wherein the reaction rate is the slope of the absorbance A405 versus time (seconds) for a total reaction time of 300 seconds.
The inhibition percentage was calculated using the following equation: […]

`CC1=C(/C=C/C(C)=C/C=C/C(C)=C\C(=O)NCCCO[C@@H]2O[C@H](CO)[C@H](O)[C@H](O)[C@H]2O)C(C)(C)CCC1` [Galactose-modified isotretinoin, (2Z,4E,6E,8E)-3,7-Dimethyl-N-(3-(((2R,3R,4S,5R,6R)-3,4,5-Trihydroxy-6-(Hydroxymethyl)Tetrahydro-2H-Pyran-2-Yl)Oxy) Propyl)-9-(2,6,6-Trimethylcyclohex-1-En-1-Yl) Nona-2,4,6,8-Tetraenamide]: the “inhibition rate compared with Comparative_1 (isotretinoin only)” value at SARS-COV-2 PLpro is reported as “significantly higher”. Moreover, the cell viability entry in the test with H460 cancer cell line (H460, FIG. 10) was “significantly reduce”; in the test with A549 cancer cell line (A549, FIG. 9), “significantly reduce”; in the test on Huh-7 cancer cell line (Huh-7, FIG. 7) it was “significantly reduce”; in the test on AsPC-1 cancer cell line (AsPC-1, FIG. 4) it was “significantly reduce”; in the test with HCT-116 cancer cell line (HCT-116, FIG. 6) it was “significantly reduce”; in the test on SKOV-3 cancer cell line (SKOV-3, FIG. 8), “significantly reduce”. Besides, in test [1] (MDA-MB-231, FIG. 5), the cell viability result is “significantly reduce”. For the same compound, the IC50 with H460 cancer cell line (Homo sapiens, NCI-H460, Non-small Cell Lung Cancer) is 22.9 µM; in the test with A549 cancer cell line (Homo sapiens, A549, Non-small Cell Lung Cancer), 21.9 µM; in the test on Huh-7 cancer cell line (Homo sapiens, Huh-7, Liver Cancer) it was 77.5 µM; in the test with AsPC-1 cancer cell line (Homo sapiens, ASPC1, AsPC-1, Pancreatic Cancer), 23 µM; in the test with HCT-116 cancer cell line (Homo sapiens, HCT-116, Colon Cancer) it was 123 µM; in the test on SKOV-3 cancer cell line (Homo sapiens, SK-OV-3, Ovarian Cancer), 13.8 µM. Besides, the IC50 in test [1] (Homo sapiens, MDA-MB-231, Breast Cancer) turned out to be 116 µM. The “TCID50 (lung virus titer) compared with isotretinoin and liposome-encapsulated isotretinoin” value with SARS-COV-2 is reported as “significantly lower”.
